The text below walks through data of patent US9174968B2, “Pyrimidinone compounds for use in the treatment of diseases or conditions mediated by LP-PLA2” (GLAXO GROUP LIMITED, priority 2010, dated 2015).

Assay [1] concerns proinflammatory (M1) and anti-inflammatory (M2) markers in macrophages. Put plainly: Experimental autoimmune encephalomyelitis (EAE) model, ex vivo analysis of M1 and M2 markers by realtime PCR. It is filed as in vivo, rats. The conditions noted are these: EAE induced with MBP, splenic macrophages day 13 and CNS infiltrating macrophages. As for the experimental part:
A further study was carried out to study the impact of Lp-PLA2 inhibitors on modulating M1/M2 imbalance. In this study, rats were induced to develop experimental autoimmune encephalomyelitis (EAE) by immunization with myelin basic protein (MBP) antigen and treated with a known Lp-PLA2 inhibitor: 5-((9-Methoxy-4-oxo-6,7-dihydro-4H-pyrimido[6,1-a]isoquinolin-2-yl)oxy)-2-(3-(trifluoromethyl)phenoxy)benzonitrile (See PCT application no. PCT/CN2011/001597) For preventive treatment, compound administration started at day 0 whereas it started at 7 day in therapeutic treatment. Rats were subsequently monitored for symptoms of EAE. Rats were immunized with MBP to develop EAE and symptoms were monitored daily. Plasma Lp-PLA2 activity and LysoPC concentration were determined at different time points through the course of EAE.
Ex vivo analysis of proinflammatory (M1) and anti-inflammatory (M2) markers in control and compound treated EAE […]. Splenic macrophages were harvested at day 13 post MBP-immunization and assayed for expression of a variety of markers by realtime PCR. CNS infiltrating cells were harvested and macrophages were analyzed for expression of M1 and M2 markers by realtime PCR.

Assay [2] concerns the target T1, Lp-PLA2 from plasma (pooled human plasma) (Homo sapiens, UniProt Q13093).
T1 construct: from tissue; host or cells: pooled human plasma
T1 sequence (Q13093 22-441): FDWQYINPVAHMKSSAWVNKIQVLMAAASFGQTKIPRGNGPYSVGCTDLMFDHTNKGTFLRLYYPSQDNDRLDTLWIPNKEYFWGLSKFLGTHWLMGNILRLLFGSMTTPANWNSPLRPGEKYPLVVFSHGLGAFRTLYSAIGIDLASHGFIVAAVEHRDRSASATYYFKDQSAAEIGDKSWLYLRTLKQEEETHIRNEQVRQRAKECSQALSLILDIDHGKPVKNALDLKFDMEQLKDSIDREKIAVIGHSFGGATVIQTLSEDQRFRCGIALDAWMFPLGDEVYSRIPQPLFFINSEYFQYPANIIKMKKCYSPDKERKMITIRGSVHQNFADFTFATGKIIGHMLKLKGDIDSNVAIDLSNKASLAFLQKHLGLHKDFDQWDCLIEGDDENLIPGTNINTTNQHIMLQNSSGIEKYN
Put plainly: Lp-PLA2 human plasma assay (Thio-PAF assay). It is filed as biochemical. To be noted: read-out: pIC50 in the thio-PAF assay (converted). From the text: (3) Lipoprotein-Associated Phospholipase A2 (Lp-PLA2) Human Plasma Assay (Also Referred to as “Thio-PAF Assay”)
The human plasma assay utilizes a thioester analog of PAF (phosphatidylcholine), where hydrolysis yields to the formation of a phospholipid containing a free thiol group. The amount of thiol is quantitated continuously by reacting with CPM (7-diethylamino-3-(4′-maleimidylphenyl)-4-methylcoumarin), a maleimide which increases in fluorescence after Michael addition of thiols. This assay may detect the activity of Lp-PLA2 from plasma, as determined by specific inhibition by Lp-PLA2 inhibitors.
The thio-PAF assay was run as a quenched 15 μL assay. Compounds source plate was prepared by making 1:3 (by volume) serial dilution of the compounds into pure DMSO on 384-well microplate. 0.01 μL of compounds on compound source plate were transferred to 384 well Greiner 784076 (black) low-volume plates by ECHO liquid dispenser. 8 μL pooled human plasma, which was previously aliquoted and frozen, was added. Plates were centrifuged for 10 sec at 500 rpm. After 30 minutes preincubation, 2 μL of substrate (2.5 mM thio-PAF, 3.2 mM NEM (N-ethylmaleimide) [made fresh daily in DMSO], and 32 μM CPM [from a DMSO stock] in assay buffer of 50 mM HEPES, pH7.4, 150 mM NaCl, 1 mM CHAPS was added to 384 well Greiner 784076 (black) low-volume plates by BRAVO liquid handling station. Plates were centrifuged for 10 sec at 500 rpm. Plate was covered to protect from light and incubated for 2 min at room temperature. Reaction was quenched with 5 μL of 5% aqueous trifluoroacetic acid (TFA). Plates were covered to protect from light and incubated for 40 min at room temperature. Plates were read at ex: 380/em: 485 using-Envision microplate reader. PIC50 data, curve and QC analysis was conducted by using XLFit module in Excel.
All exemplified compounds of the present invention were tested in thio-PAF assay or similar assay as described above.

Assay [3] addresses T2, recombinant human Lp-PLA2 (Homo sapiens, UniProt Q13093).
T2 sequence (Q13093 22-441): T1 sequence (Q13093 22-441)
Put plainly: Recombinant human Lp-PLA2 assay (rhLp-PLA2, PED6 assay). It is filed as biochemical. To be noted: upper limit for pIC50 obtained in this assay is 9.3. From the text: (1) Recombinant Human Lp-PLA2 Assay (rhLp-PLA2) (Also Referred to as “PED6” Assay)
N-((6-(2,4-dinitrophenyl)amino)-hexanoyl)-2-(4,4-difluoro-5,7-dimethyl-4-bora-3a,4a-diaza-s-indacene-3-pentanoyl)-1-hexadecanoyl-sn-glycero-3-phosphoethanolamine, triethylammonium salt (PED6) is a commercially available fluorescently-labelled phospholipid, which is commercially available from Molecular Probes. There is a quenching para-nitro phenyl (PNP) group in the sn3 position and a Bodipy fluorescein (FL) group in the sn2 position. Upon cleavage with Lp-PLA2, the Bodipy F1 group is liberated and then may result in an increase in fluorescence.
The PED6 assay was run as an unquenched 10 μL assay. Compounds source plate was prepared by making 1:3 (by volume) serial dilution of the compounds into pure DMSO on 384-well microplate. […] 5 μL of recombinant human Lp-PLA2 enzyme (2 nM rhLp-PLA2 in assay buffer of 50 mM HEPES, pH7.4, 150 mM NaCl, 1 mM CHAPS) was added to each well of the plate with compounds. Plates were centrifuged for 10 sec at 500 rpm. […] Plates were centrifuged for 10 sec at 500 rpm. Plate was covered to protect from light and incubated for 20 min at room temperature. […] PIC50 data, curve and QC analysis was conducted by using XL fit module in Excel.

As for `COc1ccc2c(c1)CCn1c-2cc(Oc2ccc(Oc3cccc(C(F)(F)F)c3)c(C#N)c2)nc1=O` [5-((9-Methoxy-4-oxo-6,7-dihydro-4H-pyrimido[6,1-a]isoquinolin-2-yl)oxy)-2-(3-(trifluoromethyl)phenoxy)benzonitrile], in assay [1], the “M1 markers (proinflammatory) expression” value was “decrease” and the “M2 markers (anti-inflammatory) expression” value is listed as “increase”.
Turning to `CCc1c[nH]c(CCc2ccc(Oc3cccc(C(F)(F)F)c3)cc2)nc1=O` [E37, 5-ethyl-2-(4-(3-(trifluoromethyl)phenoxy)phenethyl)pyrimidin-4(1H)-one], the IC50 in assay [2] and in assay [3] was above 10 µM each time.
Consider `CCc1c[nH]c(CCc2ccc(Oc3ccc(F)cc3)cc2)nc1=O` [E46, 5-ethyl-2-(4-(4-fluorophenoxy)phenethyl)pyrimidin-4(1H)-one], for which the IC50 in assay [3] was above 10 µM.
In the case of `COc1ncc(Cc2c[nH]c(OCCc3ccc(Oc4ncccn4)cc3)nc2=O)cn1` [E147, 5-((2-methoxypyrimidin-5-yl)methyl)-2-(4-(pyrimidin-2-yloxy)phenethoxy)pyrimidin-4(1H)-one], the IC50 in assay [2] and in assay [3] was above 10 µM throughout.
On to `CCc1c[nH]c(OCCc2ccc(Oc3c(F)cc(Cl)cc3F)cc2)nc1=O` [E180, 2-(4-(4-chloro-2,6-difluorophenoxy)phenethoxy)-5-ethylpyrimidin-4(1H)-one], for which the IC50 in assay [2] and in assay [3] was above 10 µM throughout.
As for `O=c1nc(NCCc2ccc(Oc3ccc(Cl)c(C(F)(F)F)c3)cc2)[nH]cc1CN1CCCC1` [E215, 2-{2-[4-(4-chloro-3-trifluoromethyl-phenoxy)-phenyl]-ethylamino}-5-pyrrolidin-1-ylmethyl-1H-pyrimidin-4-one], the IC50 in assay [2] was above 10 µM.
